Our source for the Ki values is patent publication US9260425B2 (Genetech, Inc., priority 2011, dated 2016).

The target of this assay is Pim-1 (Homo sapiens (Human), UniProt P11309). Nature of the assay: Pim kinase binding activity assay (Example 901), PIM-1 enzyme, Caliper microfluidic peptide phosphorylation. The class given is biochemical. To be noted: 20 pM PIM-1, 10 μM ATP, 1 μM FAM-peptide, 90 minutes at room temperature. The method in brief: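 The readout was microfluidic mobility-shift separation of a FAM-tagged Pim-specific peptide, excited at 488 nm and read at 530 nm, with Ki calculated from percent conversion. Reactions held 20 pM PIM-1, 1 μM peptide and 10 μM ATP in pH 7.2 HEPES/MgCl2/DTT buffer, ran 90 min at room temperature and were stopped with EDTA.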
Chain of Pim-1 (P11309 whole entry): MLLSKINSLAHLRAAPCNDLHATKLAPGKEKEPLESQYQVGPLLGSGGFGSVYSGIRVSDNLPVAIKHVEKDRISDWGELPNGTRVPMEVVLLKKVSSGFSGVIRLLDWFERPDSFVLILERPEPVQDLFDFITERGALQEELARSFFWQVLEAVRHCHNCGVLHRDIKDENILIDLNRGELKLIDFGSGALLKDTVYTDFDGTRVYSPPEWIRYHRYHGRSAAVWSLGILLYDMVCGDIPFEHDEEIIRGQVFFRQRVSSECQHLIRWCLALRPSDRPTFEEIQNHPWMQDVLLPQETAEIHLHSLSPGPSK
For the compound `NCCCCNc1cccc(-c2n[nH]c3cnc(-c4cccnc4)cc23)n1` [Example 283, N1-(6-(5-(pyridin-3-yl)-1H-pyrazolo[3,4-c]pyridin-3-yl)pyridin-2-yl)butane-1,4-diamine], affinity was put at a Ki of 0.257 nM.

With `CCn1cc(-c2cc3c(-c4cccc(N5CCN[C@@H](C)C5)n4)n[nH]c3cn2)cn1` [Example 396, (S)-5-(1-ethyl-1H-pyrazol-4-yl)-3-(6-(3-methylpiperazin-1-yl)pyridin-2-yl)-1H-pyrazolo[3,4-c]pyridine], affinity was put at a Ki of 0.081 nM.

Regarding `c1cc(-c2n[nH]c3cnc(-n4ccnc4)cc23)nc(N2CCCCC2)c1` [Example 363, 5-(1H-imidazol-1-yl)-3-(6-(piperidin-1-yl)pyridin-2-yl)-1H-pyrazolo[3,4-c]pyridine], the affinity corresponds to a Ki of 2.41 nM.

For `c1cncc(-c2cc3c(-c4cccc(N5CCCNCC5)n4)n[nH]c3cn2)c1` [Example 187, 3-(6-(1,4-diazepan-1-yl)pyridin-2-yl)-5-(pyridin-3-yl)-1H-pyrazolo[3,4-c]pyridine], the affinity corresponds to a Ki of 0.015 nM.

The compound `Cc1ccc(-c2n[nH]c3cnc(-c4cnn(C)c4)cc23)nc1N1CCC[C@H](N)C1` [Example 433, (S)-1-(3-methyl-6-(5-(1-methyl-1H-pyrazol-4-yl)-1H-pyrazolo[3,4-c]pyridin-3-yl)pyridin-2-yl)piperidin-3-amine] gave a Ki of 0.013 nM. This Ki and that of the compound before are within 1.5-fold of each other.

The compound `N[C@H]1CCCN(Cc2n[nH]c3cnc(-c4cn[nH]c4)cc23)C1` [Example 111, (S)-1-((5-(1H-pyrazol-4-yl)-1H-pyrazolo[3,4-c]pyridin-3-yl)methyl)piperidin-3-amine] registered a Ki of 4000 nM. This counts as single-digit micromolar.

`CN1CCN(c2nc(-c3n[nH]c4cnc(-c5cnn(C)c5)cc34)ccc2Br)CC1` [Example 402, 3-(5-bromo-6-(4-methylpiperazin-1-yl)pyridin-2-yl)-5-(1-methyl-1H-pyrazol-4-yl)-1H-pyrazolo[3,4-c]pyridine] yielded a Ki of 0.07 nM.

`C[C@]1(N)CCCN(c2cccc(-c3n[nH]c4cnc(-c5cccnc5)cc34)n2)C1` [Example 343, (S)-3-methyl-1-(6-(5-(pyridin-3-yl)-1H-pyrazolo[3,4-c]pyridin-3-yl)pyridin-2-yl)piperidin-3-amine]: the Ki is 0.045 nM. This Ki is about 1.6-fold lower than that of the compound before.

`N[C@H]1CCN(c2cccc(-c3n[nH]c4cnc(-c5cccnc5)cc34)n2)C1` [Example 268, (S)-1-(6-(5-(pyridin-3-yl)-1H-pyrazolo[3,4-c]pyridin-3-yl)pyridin-2-yl)pyrrolidin-3-amine] returned an inhibitory constant (Ki) of 0.0268 nM.

In turn, `NC(=O)C1(N)CCN(c2cccc(-c3n[nH]c4cnc(-c5cccnc5)cc34)n2)CC1` [Example 229, 4-amino-1-(6-(5-(pyridin-3-yl)-1H-pyrazolo[3,4-c]pyridin-3-yl)pyridin-2-yl)piperidine-4-carboxamide] yielded a Ki of 0.22 nM.

For the compound `Cn1cc(-c2cc3c(-c4cccc(C5CCNCC5)n4)n[nH]c3cn2)cn1` [Example 247, 5-(1-methyl-1H-pyrazol-4-yl)-3-(6-(piperidin-4-yl)pyridin-2-yl)-1H-pyrazolo[3,4-c]pyridine], the Ki worked out at 0.224 nM. This Ki and that of the compound before are within 1.5-fold of each other.

Compound `Cn1cc(-c2cc3c(-c4ccc(Br)c(N5CCN(CCS(C)(=O)=O)C(C)(C)C5)n4)n[nH]c3cn2)cn1` [Example 406, 3-(5-bromo-6-(3,3-dimethyl-4-(2-(methylsulfonyl)ethyl)piperazin-1-yl)pyridin-2-yl)-5-(1-methyl-1H-pyrazol-4-yl)-1H-pyrazolo[3,4-c]pyridine] showed a Ki of 0.259 nM.

`c1cncc(-c2cc3c(-c4cnn(C5CCNCC5)c4)n[nH]c3cn2)c1` [Example 175, 3-(1-(piperidin-4-yl)-1H-pyrazol-4-yl)-5-(pyridin-3-yl)-1H-pyrazolo[3,4-c]pyridine] had a Ki of 0.3 nM.

`c1cncc(-c2cc3c(N4CCC(N5CCNCC5)C4)n[nH]c3cn2)c1` (stereo not drawn) [Example 320, 3-(3-(piperazin-1-yl)pyrrolidin-1-yl)-5-(pyridin-3-yl)-1H-pyrazolo[3,4-c]pyridine] came in with a Ki of 3.86 nM.

With `c1ccc(-c2cc3c(-c4ccccn4)n[nH]c3cn2)nc1` [Example 256, 3,5-di(pyridin-2-yl)-1H-pyrazolo[3,4-c]pyridine], affinity was put at a Ki of 1500 nM.

In the case of `Fc1ccccc1-c1n[nH]c2cnc(-c3cnccc3OCC3CCNCC3)cc12` [Example 155, 3-(2-fluorophenyl)-5-(4-(piperidin-4-ylmethoxy)pyridin-3-yl)-1H-pyrazolo[3,4-c]pyridine], the Ki is 0.614 nM.

For the compound `N[C@H]1CCCN(Cc2n[nH]c3cnc(-c4cn[nH]c4)cc23)C1` [Example 107, (S)-1-((5-(1H-pyrazol-4-yl)-1H-pyrazolo[3,4-c]pyridin-3-yl)methyl)piperidin-3-amine], the inhibitory constant (Ki) was 3000 nM.

`C=Cc1ccc(-c2n[nH]c3cnc(-c4cnn(CC)c4)cc23)nc1N1CCC[C@H](N)C1` [Example 431, (S)-1-(6-(5-(1-ethyl-1H-pyrazol-4-yl)-1H-pyrazolo[3,4-c]pyridin-3-yl)-3-vinylpyridin-2-yl)piperidin-3-amine] displayed a Ki of 0.023 nM.

In turn, `Cc1ccc(-c2n[nH]c3cnc(-c4cccnc4)cc23)nc1N1CC[C@H](N)C1` [Example 317, (S)-1-(3-methyl-6-(5-(pyridin-3-yl)-1H-pyrazolo[3,4-c]pyridin-3-yl)pyridin-2-yl)pyrrolidin-3-amine] returned a Ki of 0.059 nM.

As for `CCn1cc(-c2cc3c(-c4cccc(N5CC[C@@H](F)[C@H](N)C5)n4)n[nH]c3cn2)cn1` (relative stereo) [Example 462, trans-1-(6-(5-(1-ethyl-1H-pyrazol-4-yl)-1H-pyrazolo[3,4-c]pyridin-3-yl)pyridin-2-yl)-4-fluoropiperidin-3-amine], affinity was put at a Ki of 0.55 nM.

`CCn1cc(-c2cc3c(-c4cccc(N5CCNCC(CO)C5)n4)n[nH]c3cn2)cn1` (stereo not drawn) [Example 511, (1-(6-(5-(1-ethyl-1H-pyrazol-4-yl)-1H-pyrazolo[3,4-c]pyridin-3-yl)pyridin-2-yl)-1,4-diazepan-6-yl)methanol]: the Ki was determined as 0.016 nM.

On to `Cc1ccc(F)c(-c2n[nH]c3cnc(-c4cnn(C)c4)cc23)c1` [Example 205, 3-(2-fluoro-5-methylphenyl)-5-(1-methyl-1H-pyrazol-4-yl)-1H-pyrazolo[3,4-c]pyridine], for which the Ki was 6.08 nM.

In turn, `c1cncc(-c2cc3c(-c4cc[nH]n4)n[nH]c3cn2)c1` [Example 193, 3-(1H-pyrazol-3-yl)-5-(pyridin-3-yl)-1H-pyrazolo[3,4-c]pyridine] showed a Ki of 2.63 nM. Against the preceding compound, the Ki is about 2.3-fold lower.

Take `CN1CCN(c2n[nH]c3cnc(-c4cccnc4)cc23)C1=O` [Example 254, 1-methyl-3-(5-(pyridin-3-yl)-1H-pyrazolo[3,4-c]pyridin-3-yl)imidazolidin-2-one]: the affinity corresponds to a Ki of 18.5 nM. Compared with the last compound, the Ki is about 7-fold higher.

`CCn1cc(-c2cc3c(-c4ccc(C)c(N5C[C@@H](N)C[C@@H](F)C5)n4)n[nH]c3cn2)cn1` [Example 510, (3S,5R)-1-(6-(5-(1-ethyl-1H-pyrazol-4-yl)-1H-pyrazolo[3,4-c]pyridin-3-yl)-3-methylpyridin-2-yl)-5-fluoropiperidin-3-amine] displayed a Ki of 0.03 nM.

`N[C@@H]1CCCN(c2ccc(-c3n[nH]c4cnc(-c5cccnc5)cc34)cn2)C1` [Example 191, (R)-1-(5-(5-(pyridin-3-yl)-1H-pyrazolo[3,4-c]pyridin-3-yl)pyridin-2-yl)piperidin-3-amine] came in with a Ki of 0.404 nM.

Take `FC(F)(F)c1cncc(-c2cc3c(-c4cccc(N5CCNCC5)n4)n[nH]c3cn2)c1` [Example 467, 3-(6-(piperazin-1-yl)pyridin-2-yl)-5-(5-(trifluoromethyl)pyridin-3-yl)-1H-pyrazolo[3,4-c]pyridine]: the affinity corresponds to a Ki of 0.093 nM.

Compound `N[C@@H]1CCCN(Cc2n[nH]c3cnc(-c4cccnc4)cc23)C1` [Example 105, (R)-1-((5-(pyridin-3-yl)-1H-pyrazolo[3,4-c]pyridin-3-yl)methyl)piperidin-3-amine] displayed a Ki of 3400 nM.

`N[C@H]1CCCN(c2cccc(-c3n[nH]c4cnc(N5CCNC(=O)C5)cc34)n2)C1` [Example 345, (S)-4-(3-(6-(3-aminopiperidin-1-yl)pyridin-2-yl)-1H-pyrazolo[3,4-c]pyridin-5-yl)piperazin-2-one] showed a Ki of 13.7 nM.

`CCn1cc(-c2cc3c(-c4ccc(C)c(N5CCNCC5)n4)n[nH]c3cn2)cn1` [Example 432, 5-(1-ethyl-1H-pyrazol-4-yl)-3-(5-methyl-6-(piperazin-1-yl)pyridin-2-yl)-1H-pyrazolo[3,4-c]pyridine] registered a Ki of 0.055 nM.

`CCn1cc(-c2cc3c(-c4ccc(C(C)C)c(N5CCC[C@H](N)C5)n4)n[nH]c3cn2)cn1` [Example 478, (S)-1-(6-(5-(1-ethyl-1H-pyrazol-4-yl)-1H-pyrazolo[3,4-c]pyridin-3-yl)-3-isopropylpyridin-2-yl)piperidin-3-amine] showed a Ki of 0.02 nM.

Compound `CN1CCN(c2cc3c(-c4ccccn4)n[nH]c3cn2)CC1=O` [Example 351, 1-methyl-4-(3-(pyridin-2-yl)-1H-pyrazolo[3,4-c]pyridin-5-yl)piperazin-2-one] returned a Ki of 4800 nM.

The compound `Fc1ccccc1-c1n[nH]c2cnc(-c3cn[nH]c3)cc12` [Example 136, 3-(2-fluorophenyl)-5-(1H-pyrazol-4-yl)-1H-pyrazolo[3,4-c]pyridine] showed a Ki of 8.69 nM. Compared with the last compound, the Ki is about 550-fold lower.

The compound `CCn1cc(-c2cc3c(-c4cccc(NC5CCCCNC5)n4)n[nH]c3cn2)cn1` (stereo not drawn) [Example 513, N-(6-(5-(1-ethyl-1H-pyrazol-4-yl)-1H-pyrazolo[3,4-c]pyridin-3-yl)pyridin-2-yl)azepan-3-amine] had a Ki of 0.055 nM.

In the case of `CCc1ccnc(-c2n[nH]c3cnc(-c4cnn(CC)c4)cc23)c1` [Example 493, 5-(1-ethyl-1H-pyrazol-4-yl)-3-(4-ethylpyridin-2-yl)-1H-pyrazolo[3,4-c]pyridine], the affinity, expressed as Ki, was 43.6 nM.

`[O-][n+]1cc(C(F)(F)F)ccc1-c1n[nH]c2cnc(-c3cccnc3)cc12` [Example 354] registered an inhibition constant (Ki) of 97.9 nM.
